{
  "source": "paper PMC11532980",
  "about": "“Solvation free energy in governing equations for DNA hybridization, protein–ligand binding, and protein folding” (FEBS Open Bio, 2024)",
  "target": "T1, ribonuclease A (RNase A) (Bos taurus, UniProt P61823)",
  "T1 construct": "gene RNASE1; native enzyme from bovine pancreas, commercial; mature secreted protein (signal peptide removed), no tag",
  "T1 sequence (P61823 27-150)": "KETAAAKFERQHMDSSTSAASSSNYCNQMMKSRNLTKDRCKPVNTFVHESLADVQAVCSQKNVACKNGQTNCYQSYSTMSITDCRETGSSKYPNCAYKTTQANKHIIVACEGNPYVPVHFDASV",
  "test": "isothermal titration calorimetry",
  "format": "binding",
  "conditions": "25 mM Bis-Tris, 25 mM KCl, pH 6.0, 25 °C; K per RNase A concentration (five concentrations, up to 0.6 mM); ligand from disodium salt; y-intercept of −RTlnK versus complex concentration (extrapolated t)",
  "data": [
    {"smiles": "O=c1ccn([C@@H]2O[C@H](CO)[C@@H](OP(=O)(O)O)[C@H]2O)c(=O)[nH]1", "note": "[3′‐UMP]", "values": [
      {"measurement": "ΔG°", "result": "-6.46 ± 0.03", "unit": "kcal/mol"}
    ]}
  ]
}
